Patent US20140329912A1, “CONTRACEPTIVE COMPOSITIONS AND METHODS OF CONTRACEPTION” (INTEGRITY PHARMACEUTICALS, LLC, priority 2011, published 2014)

Experiments:
Sperms [1] = assay: Real-Time PCR Stress and Toxicity PathwayFinder RT2 Profiler array on treated sperm; format: cell-based, mice; details: 50 ppm
Procedure: (§1) Male BALB/c mice (12-16 week old) were euthanized by CO2-inhalation. The cauda epididymes was clipped and the upper portions of the vas deferens freed from surrounding tissue. Three-four cuts were made using scissors and forceps across the epididymes and several cuts along the length of the vas deferens. Sperm were allowed to swim out of the tissue. The dish was placed in a 5% CO2 incubator set at 37° C. for 10-15 minutes. The solution of sperm was diluted (50 μl sperm+450 μl complete medium) in Whittens/HCO3/BSA. Sperm was removed from the very top or sides of sperm drop to obtain the sperm with highest motility. The dish was then returned to the 5% CO2 incubator set at 37° C. to allow the sperm to capacitate for 1-3 hrs prior to use.
Sperms (10^4) were placed in 96-well plate in complete media and treated with n-propyl bromide (50 ppm) or phosphate buffered saline (control) and incubated for 10 minutes in a 5% CO2 incubator set at 37° C. The dish with sperm was then washed 3-times with phosphate buffered saline and returned to the 5% CO2 incubator set at 37° C. for a further 24 hours. Sperm were then collected by centrifugation and subjected to the Stress and Toxicity PathwayFinder™ RT^2 Profiler™ assay according to the manufacturer's instructions (SA Biosciences, Frederick, Md.). This PCR Array profiles the expression of 84 genes whose expression level is indicative of stress and toxicity. […] The array also includes genes representative of pathways activated by prolonged stress, which range from cell death by apoptosis or necrosis to growth arrest and senescence to proliferation and carcinogenesis.

Sperms [2] = assay: Toxicity screening: cell viability by MTS assay; format: cell-based, mice; details: for Average absorbance of cell-reduced MTS at 490 nm: average of trials 1-3; for Corrected average absorbance of cell-reduced MTS at 490 nm: culture media background subtracted
Procedure: as §1
In addition, cell viability with n-propyl bromide was measured by MTS assay (Promega, Madison, Wis.). MTS [3-(4,5-dimethylthiazol-2-yl)-5-(3-carboxymethoxyphenyl)-2-(4-sulfophenyl)-2H-tetrazolium, inner salt] was utilized according to the manufacturer's instructions. The culture growth medium consisted of Whittens-HEPES complete media, (pH 7.2-7.4) prepared and supplemented with 30 mM NaHCO3 and 10 mg/mL BSA (Bovine Serum Albumin, Sigma A0281, fatty acid free). 250 mL of Whittens-Hepes complete media includes 1461 mg of NaCl, 87.6 mg of KCl, 40.8 mg of KH2PO4, 36.1 mg of MgSO4, 247.8 mg of glucose (dextrose), 22.01 mg of pyruvic acid, 130.92 mg of lactic acid (hemi-Ca), and 1191.5 mg of HEPES. After treatments of the sperms, 30 μL of MTS solution was added to each well and pipetted up and down for ten times to ensure properly mixing and incubation was prolonged for 2 h at 37° C., 5% CO2.
Absorbance observations for trials 1-3 and calculated average are expressed as optical density. The absorbance of cell-reduced MTS was read at 490 nm on a spectrophotometer Spectra Max Plus 384, and optical density for absorbance readings is provided in Table II. Absorbance is directly proportional to the number of living cells in culture. Thus, a reduction in absorbance normalized to a control indicates toxicity to a cell. Background absorbance was measured for the culture media only in three trials. An average absorbance was calculated from the three trials. The average optical density for the three trials for the culture media (background) was then subtracted from the average optical density of the various concentration assays for n-propyl bromide (expressed in terms of ppm of n-propyl bromide). Three control trials using only phosphate buffered saline were also measured. The corrected, average optical density of each of the experimental assays was then compared to the corrected, average optical density of the control (PBS only) assays. The comparison is expressed as the percentage of MTS reduction relative to the normalized absorbance of control samples.

## CCCBr [n-propyl bromide, 1-bromopropane]
Sperms [1]; a two-fold or greater change might be significant
  cell death, necrosis, mutigencity, or DNA damage (PCR array, Table I): no significant cell death, necrosis, mutigencity, or DNA damage was observed
Sperms [1]; APFA1, NM_001160, Apoptosis and Senescence, 10 minutes, washed, further 24 hours
  Fold Change, gene APFA1 (Apoptotic peptidase activating factor 1): −1.04 fold
Sperms [1]; ATM, NM_00051, Cell Cycle Control and DNA Damage Repair, 10 minutes, washed, further 24 hours
  Fold Change, gene ATM (Ataxia telangiectasia mutated): −1.01 fold
Sperms [1]; BAD, NM_004322, Apoptosis and Senescence, 10 minutes, washed, further 24 hours
  Fold Change, gene BAD (BCL2 associated agonist of cell death): −1.00 fold
Sperms [1]; BAX, NM_004324, Apoptosis and Senescence, 10 minutes, washed, further 24 hours
  Fold Change, gene BAX (BCL2 associated X protein): −1.25 fold
Sperms [1]; BCL2, NM_000633, Apoptosis and Senescence, 10 minutes, washed, further 24 hours
  Fold Change, gene BCL2 (B-cell CLL/lymphoma 2): −1.24 fold
Sperms [1]; BCL2L1, NM_138578, Apoptosis and Senescence, 10 minutes, washed, further 24 hours
  Fold Change, gene BCL2L1 (BCL2-like 1): −1.06 fold
Sperms [1]; BRCA1, NM_007294, Cell Cycle Control and DNA Damage Repair, 10 minutes, washed, further 24 hours
  Fold Change, gene BRCA1 (Breast cancer1, early onset): −1.23 fold
Sperms [1]; CASP8, NM_001228, Apoptosis and Senescence, 10 minutes, washed, further 24 hours
  Fold Change, gene CASP8 (Caspase 8, apoptosis related cysteine peptidase): −1.57 fold
Sperms [1]; CCNE1, NM_001238, Cell Cycle Control and DNA Damage Repair, 10 minutes, washed, further 24 hours
  Fold Change, gene CCNE1 (Cyclin E1): −1.06 fold
Sperms [1]; CDC25A, NM_001789, Cell Cycle Control and DNA Damage Repair, 10 minutes, washed, further 24 hours
  Fold Change, gene CDC25A (Cell division cycle 25, homolog A): −1.04 fold
Sperms [1]; CDK4, NM_000075, Cell Cycle Control and DNA Damage Repair, 10 minutes, washed, further 24 hours
  Fold Change, gene CDK4 (Cyclin-dependent kinase 4): −1.04 fold
Sperms [1]; CDKN2A, NM_000077, Cell Cycle Control and DNA Damage Repair, 10 minutes, washed, further 24 hours
  Fold Change, gene CDKN2A (Cyclin dependent kinase inhibitor 2A): −1.05 fold
Sperms [1]; CDKNA1, NM_000389, Cell Cycle Control and DNA Damage Repair, 10 minutes, washed, further 24 hours
  Fold Change, gene CDKNA1 (Cyclin dependent kinase inhibitor 1A): −1.25 fold
Sperms [1]; CFLAR, NM_003879, Apoptosis and Senescence, 10 minutes, washed, further 24 hours
  Fold Change, gene CFLAR (CASP8 & FADD like apoptosis regulator): −1.11 fold
Sperms [1]; CHEK2, NM_007194, Cell Cycle Control and DNA Damage Repair, 10 minutes, washed, further 24 hours
  Fold Change, gene CHEK2 (CHk2, Checkpoint homolog): −1.02 fold
Sperms [1]; E2F1, NM_005225, Cell Cycle Control and DNA Damage Repair, 10 minutes, washed, further 24 hours
  Fold Change, gene E2F1 (E2F transcription factor 1): −1.17 fold
Sperms [1]; GZMA, NM_006144, Apoptosis and Senescence, 10 minutes, washed, further 24 hours
  Fold Change, gene GZMA (Granzyme A): −1.26 fold
Sperms [1]; HTATIP2, NM_006410, Apoptosis and Senescence, 10 minutes, washed, further 24 hours
  Fold Change, gene HTATIP2 (HIV-1 tat interactive protein 2): −1.38 fold
Sperms [1]; MDM2, NM_002392, Cell Cycle Control and DNA Damage Repair, 10 minutes, washed, further 24 hours
  Fold Change, gene MDM2 (MDM2 p53 binding protein homolog): −1.32 fold
Sperms [1]; RB1, NM_000321, Cell Cycle Control and DNA Damage Repair, 10 minutes, washed, further 24 hours
  Fold Change, gene RB1 (Retinoblastoma 1): −1.30 fold
Sperms [1]; S100A4, NM_002961, Cell Cycle Control and DNA Damage Repair, 10 minutes, washed, further 24 hours
  Fold Change, gene S100A4 (S100 calcium binding protein A4): −1.15 fold
Sperms [1]; TERT, NM_198253, Apoptosis and Senescence, 10 minutes, washed, further 24 hours
  Fold Change, gene TERT (Telomerase reverse transcriptase): −1.16 fold
Sperms [1]; TNFRS1A, NM_001065, Apoptosis and Senescence, 10 minutes, washed, further 24 hours
  Fold Change, gene TNFRS1A (Tumor necrosis factor receptor super family member 1A): −1.36 fold
Sperms [1]; TNFRSF10B, NM_003842, Apoptosis and Senescence, 10 minutes, washed, further 24 hours
  Fold Change, gene TNFRSF10B (Tumor necrosis factor receptor super family member 10b): −1.33 fold
Sperms [1]; TNFRSF25, NM_003790, Apoptosis and Senescence, 10 minutes, washed, further 24 hours
  Fold Change, gene TNFRSF25 (Tumor necrosis factor receptor super family member 25): −1.15 fold
Sperms [1]; TP53, NM_000546, Cell Cycle Control and DNA Damage Repair, 10 minutes, washed, further 24 hours
  Fold Change, gene TP53 (Tumor protein p53): −1.06 fold
Sperms [2]; 0.1 ppm
  % of control (MTS reduction relative to PBS only control): 90%
  Absorbance of cell-reduced MTS at 490 nm, Trial 1: 0.2 optical density
  Absorbance of cell-reduced MTS at 490 nm, Trial 2: 0.1 optical density
  Absorbance of cell-reduced MTS at 490 nm, Trial 3: 0.3 optical density
  Average absorbance of cell-reduced MTS at 490 nm: 0.2 optical density
  Corrected average absorbance of cell-reduced MTS at 490 nm: 0.0 optical density
Sperms [2]; 1 ppm
  % of control (MTS reduction relative to PBS only control): 100%
  Absorbance of cell-reduced MTS at 490 nm, Trial 1: 0.2 optical density
  Absorbance of cell-reduced MTS at 490 nm, Trial 2: 0.4 optical density
  Absorbance of cell-reduced MTS at 490 nm, Trial 3: 0.1 optical density
  Average absorbance of cell-reduced MTS at 490 nm: 0.2 optical density
  Corrected average absorbance of cell-reduced MTS at 490 nm: 0.1 optical density
Sperms [2]; 5 ppm
  % of control (MTS reduction relative to PBS only control): 100%
  Absorbance of cell-reduced MTS at 490 nm, Trial 1: 0.2 optical density
  Absorbance of cell-reduced MTS at 490 nm, Trial 2: 0.3 optical density
  Absorbance of cell-reduced MTS at 490 nm, Trial 3: 0.4 optical density
  Average absorbance of cell-reduced MTS at 490 nm: 0.3 optical density
  Corrected average absorbance of cell-reduced MTS at 490 nm: 0.1 optical density
Sperms [2]; 12.5 ppm
  % of control (MTS reduction relative to PBS only control): 100%
  Absorbance of cell-reduced MTS at 490 nm, Trial 1: 0.4 optical density
  Absorbance of cell-reduced MTS at 490 nm, Trial 2: 0.4 optical density
  Absorbance of cell-reduced MTS at 490 nm, Trial 3: 0.1 optical density
  Average absorbance of cell-reduced MTS at 490 nm: 0.3 optical density
  Corrected average absorbance of cell-reduced MTS at 490 nm: 0.1 optical density
Sperms [2]; 25 ppm
  % of control (MTS reduction relative to PBS only control): 100%
  Absorbance of cell-reduced MTS at 490 nm, Trial 1: 0.3 optical density
  Absorbance of cell-reduced MTS at 490 nm, Trial 2: 0.4 optical density
  Absorbance of cell-reduced MTS at 490 nm, Trial 3: 0.2 optical density
  Average absorbance of cell-reduced MTS at 490 nm: 0.3 optical density
  Corrected average absorbance of cell-reduced MTS at 490 nm: 0.1 optical density
Sperms [2]; 50 ppm
  % of control (MTS reduction relative to PBS only control): 100%
  Absorbance of cell-reduced MTS at 490 nm, Trial 1: 0.2 optical density
  Absorbance of cell-reduced MTS at 490 nm, Trial 2: 0.5 optical density
  Absorbance of cell-reduced MTS at 490 nm, Trial 3: 0.1 optical density
  Average absorbance of cell-reduced MTS at 490 nm: 0.3 optical density
  Corrected average absorbance of cell-reduced MTS at 490 nm: 0.1 optical density
Sperms [2]; 100 ppm
  % of control (MTS reduction relative to PBS only control): 400%
  Absorbance of cell-reduced MTS at 490 nm, Trial 1: 0.4 optical density
  Absorbance of cell-reduced MTS at 490 nm, Trial 2: 0.6 optical density
  Absorbance of cell-reduced MTS at 490 nm, Trial 3: 0.7 optical density
  Average absorbance of cell-reduced MTS at 490 nm: 0.6 optical density
  Corrected average absorbance of cell-reduced MTS at 490 nm: 0.4 optical density
Sperms [2]; 200 ppm
  % of control (MTS reduction relative to PBS only control): 600%
  Absorbance of cell-reduced MTS at 490 nm, Trial 1: 0.8 optical density
  Absorbance of cell-reduced MTS at 490 nm, Trial 2: 0.9 optical density
  Absorbance of cell-reduced MTS at 490 nm, Trial 3: 0.7 optical density
  Average absorbance of cell-reduced MTS at 490 nm: 0.8 optical density
  Corrected average absorbance of cell-reduced MTS at 490 nm: 0.6 optical density
Sperms [2]; 600 ppm
  % of control (MTS reduction relative to PBS only control): 900%
  Absorbance of cell-reduced MTS at 490 nm, Trial 1: 1.2 optical density
  Absorbance of cell-reduced MTS at 490 nm, Trial 2: 1.1 optical density
  Absorbance of cell-reduced MTS at 490 nm, Trial 3: 0.9 optical density
  Average absorbance of cell-reduced MTS at 490 nm: 1.1 optical density
  Corrected average absorbance of cell-reduced MTS at 490 nm: 0.9 optical density
Sperms [2]; at concentrations of 50 ppm or less
  cell toxicity (MTS assay, Table II): does not result in significant cell toxicity
